Legend:
[1] = molecular target: Cav3.2 (Homo sapiens, UniProt O95180); assay type: cell-based; details: 100 μM; n=2
Method: (§1) The studies were conducted according to the conventional procedures.
(§2) The exposure duration of each channel was 5 minutes. […] Any left current after exposure to this dose was digitally subtracted to eliminate the contribution of any endogenous current.

[2] = molecular target: T1, HCN2 (Homo sapiens, UniProt Q9UL51); experiment: Patch clamp assay, ion channel inhibition; details: read-out: Mean % inhibition (positive control)
T1 sequence (Q9UL51 1-889): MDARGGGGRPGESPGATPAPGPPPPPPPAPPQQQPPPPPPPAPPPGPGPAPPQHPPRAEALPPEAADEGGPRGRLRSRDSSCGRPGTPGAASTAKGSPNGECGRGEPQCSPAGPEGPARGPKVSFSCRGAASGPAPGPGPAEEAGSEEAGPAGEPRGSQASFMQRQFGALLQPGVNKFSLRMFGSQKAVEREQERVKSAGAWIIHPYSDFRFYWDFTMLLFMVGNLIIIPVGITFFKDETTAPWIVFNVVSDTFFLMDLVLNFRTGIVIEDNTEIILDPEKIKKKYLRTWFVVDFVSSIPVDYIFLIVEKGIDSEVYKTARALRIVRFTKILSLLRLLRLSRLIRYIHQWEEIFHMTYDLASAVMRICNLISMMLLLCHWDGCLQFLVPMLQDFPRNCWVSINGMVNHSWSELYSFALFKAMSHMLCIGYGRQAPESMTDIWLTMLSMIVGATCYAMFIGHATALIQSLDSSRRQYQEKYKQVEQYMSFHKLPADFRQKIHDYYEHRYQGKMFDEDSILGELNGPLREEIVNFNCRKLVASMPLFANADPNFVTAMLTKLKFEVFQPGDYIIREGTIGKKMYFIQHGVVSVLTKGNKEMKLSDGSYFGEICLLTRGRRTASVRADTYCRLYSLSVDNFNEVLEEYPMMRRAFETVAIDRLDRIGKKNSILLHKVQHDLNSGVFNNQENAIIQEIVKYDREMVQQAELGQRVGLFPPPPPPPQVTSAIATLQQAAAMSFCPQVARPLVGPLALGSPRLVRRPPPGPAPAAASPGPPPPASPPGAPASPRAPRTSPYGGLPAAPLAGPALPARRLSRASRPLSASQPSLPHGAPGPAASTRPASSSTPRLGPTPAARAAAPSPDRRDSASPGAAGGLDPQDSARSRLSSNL
Method: as §1, §2

[3] = molecular target: T2, HCN4 (Homo sapiens, UniProt Q9Y3Q4); experiment: Patch clamp assay, ion channel inhibition; details: read-out: Mean % inhibition (positive control)
T2 sequence (Q9Y3Q4 1-1203): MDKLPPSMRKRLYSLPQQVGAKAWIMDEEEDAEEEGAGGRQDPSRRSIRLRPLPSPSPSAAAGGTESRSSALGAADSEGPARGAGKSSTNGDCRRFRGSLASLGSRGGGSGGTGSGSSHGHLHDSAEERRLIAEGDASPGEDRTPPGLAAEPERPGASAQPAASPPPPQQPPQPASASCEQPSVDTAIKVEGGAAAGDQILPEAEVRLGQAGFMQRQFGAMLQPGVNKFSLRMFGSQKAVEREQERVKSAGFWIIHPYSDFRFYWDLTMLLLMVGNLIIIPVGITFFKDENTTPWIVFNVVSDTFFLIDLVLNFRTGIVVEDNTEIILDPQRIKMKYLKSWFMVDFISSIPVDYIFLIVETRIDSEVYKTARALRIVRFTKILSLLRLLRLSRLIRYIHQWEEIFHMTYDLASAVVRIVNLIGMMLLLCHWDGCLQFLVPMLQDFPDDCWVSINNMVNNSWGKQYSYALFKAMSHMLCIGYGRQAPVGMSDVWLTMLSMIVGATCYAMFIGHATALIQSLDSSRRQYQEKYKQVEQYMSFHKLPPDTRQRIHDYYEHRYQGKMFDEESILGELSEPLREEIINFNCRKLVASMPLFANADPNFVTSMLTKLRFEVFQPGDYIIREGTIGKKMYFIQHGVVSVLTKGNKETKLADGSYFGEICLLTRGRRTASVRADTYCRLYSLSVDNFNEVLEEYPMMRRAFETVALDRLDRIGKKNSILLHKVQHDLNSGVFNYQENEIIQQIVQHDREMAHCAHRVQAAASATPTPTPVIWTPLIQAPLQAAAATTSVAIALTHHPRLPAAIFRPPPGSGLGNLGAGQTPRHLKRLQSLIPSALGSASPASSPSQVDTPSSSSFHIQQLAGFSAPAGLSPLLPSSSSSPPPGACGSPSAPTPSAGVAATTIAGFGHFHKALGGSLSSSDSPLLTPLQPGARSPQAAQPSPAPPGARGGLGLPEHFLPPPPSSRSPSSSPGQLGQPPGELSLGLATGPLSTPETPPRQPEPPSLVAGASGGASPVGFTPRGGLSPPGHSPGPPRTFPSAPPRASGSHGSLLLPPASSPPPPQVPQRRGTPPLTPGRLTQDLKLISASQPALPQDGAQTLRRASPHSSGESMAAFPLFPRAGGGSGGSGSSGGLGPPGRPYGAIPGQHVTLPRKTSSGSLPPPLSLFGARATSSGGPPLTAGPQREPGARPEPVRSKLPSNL
Method: as §1, §2

Chain of Cav3.2 (O95180 whole entry): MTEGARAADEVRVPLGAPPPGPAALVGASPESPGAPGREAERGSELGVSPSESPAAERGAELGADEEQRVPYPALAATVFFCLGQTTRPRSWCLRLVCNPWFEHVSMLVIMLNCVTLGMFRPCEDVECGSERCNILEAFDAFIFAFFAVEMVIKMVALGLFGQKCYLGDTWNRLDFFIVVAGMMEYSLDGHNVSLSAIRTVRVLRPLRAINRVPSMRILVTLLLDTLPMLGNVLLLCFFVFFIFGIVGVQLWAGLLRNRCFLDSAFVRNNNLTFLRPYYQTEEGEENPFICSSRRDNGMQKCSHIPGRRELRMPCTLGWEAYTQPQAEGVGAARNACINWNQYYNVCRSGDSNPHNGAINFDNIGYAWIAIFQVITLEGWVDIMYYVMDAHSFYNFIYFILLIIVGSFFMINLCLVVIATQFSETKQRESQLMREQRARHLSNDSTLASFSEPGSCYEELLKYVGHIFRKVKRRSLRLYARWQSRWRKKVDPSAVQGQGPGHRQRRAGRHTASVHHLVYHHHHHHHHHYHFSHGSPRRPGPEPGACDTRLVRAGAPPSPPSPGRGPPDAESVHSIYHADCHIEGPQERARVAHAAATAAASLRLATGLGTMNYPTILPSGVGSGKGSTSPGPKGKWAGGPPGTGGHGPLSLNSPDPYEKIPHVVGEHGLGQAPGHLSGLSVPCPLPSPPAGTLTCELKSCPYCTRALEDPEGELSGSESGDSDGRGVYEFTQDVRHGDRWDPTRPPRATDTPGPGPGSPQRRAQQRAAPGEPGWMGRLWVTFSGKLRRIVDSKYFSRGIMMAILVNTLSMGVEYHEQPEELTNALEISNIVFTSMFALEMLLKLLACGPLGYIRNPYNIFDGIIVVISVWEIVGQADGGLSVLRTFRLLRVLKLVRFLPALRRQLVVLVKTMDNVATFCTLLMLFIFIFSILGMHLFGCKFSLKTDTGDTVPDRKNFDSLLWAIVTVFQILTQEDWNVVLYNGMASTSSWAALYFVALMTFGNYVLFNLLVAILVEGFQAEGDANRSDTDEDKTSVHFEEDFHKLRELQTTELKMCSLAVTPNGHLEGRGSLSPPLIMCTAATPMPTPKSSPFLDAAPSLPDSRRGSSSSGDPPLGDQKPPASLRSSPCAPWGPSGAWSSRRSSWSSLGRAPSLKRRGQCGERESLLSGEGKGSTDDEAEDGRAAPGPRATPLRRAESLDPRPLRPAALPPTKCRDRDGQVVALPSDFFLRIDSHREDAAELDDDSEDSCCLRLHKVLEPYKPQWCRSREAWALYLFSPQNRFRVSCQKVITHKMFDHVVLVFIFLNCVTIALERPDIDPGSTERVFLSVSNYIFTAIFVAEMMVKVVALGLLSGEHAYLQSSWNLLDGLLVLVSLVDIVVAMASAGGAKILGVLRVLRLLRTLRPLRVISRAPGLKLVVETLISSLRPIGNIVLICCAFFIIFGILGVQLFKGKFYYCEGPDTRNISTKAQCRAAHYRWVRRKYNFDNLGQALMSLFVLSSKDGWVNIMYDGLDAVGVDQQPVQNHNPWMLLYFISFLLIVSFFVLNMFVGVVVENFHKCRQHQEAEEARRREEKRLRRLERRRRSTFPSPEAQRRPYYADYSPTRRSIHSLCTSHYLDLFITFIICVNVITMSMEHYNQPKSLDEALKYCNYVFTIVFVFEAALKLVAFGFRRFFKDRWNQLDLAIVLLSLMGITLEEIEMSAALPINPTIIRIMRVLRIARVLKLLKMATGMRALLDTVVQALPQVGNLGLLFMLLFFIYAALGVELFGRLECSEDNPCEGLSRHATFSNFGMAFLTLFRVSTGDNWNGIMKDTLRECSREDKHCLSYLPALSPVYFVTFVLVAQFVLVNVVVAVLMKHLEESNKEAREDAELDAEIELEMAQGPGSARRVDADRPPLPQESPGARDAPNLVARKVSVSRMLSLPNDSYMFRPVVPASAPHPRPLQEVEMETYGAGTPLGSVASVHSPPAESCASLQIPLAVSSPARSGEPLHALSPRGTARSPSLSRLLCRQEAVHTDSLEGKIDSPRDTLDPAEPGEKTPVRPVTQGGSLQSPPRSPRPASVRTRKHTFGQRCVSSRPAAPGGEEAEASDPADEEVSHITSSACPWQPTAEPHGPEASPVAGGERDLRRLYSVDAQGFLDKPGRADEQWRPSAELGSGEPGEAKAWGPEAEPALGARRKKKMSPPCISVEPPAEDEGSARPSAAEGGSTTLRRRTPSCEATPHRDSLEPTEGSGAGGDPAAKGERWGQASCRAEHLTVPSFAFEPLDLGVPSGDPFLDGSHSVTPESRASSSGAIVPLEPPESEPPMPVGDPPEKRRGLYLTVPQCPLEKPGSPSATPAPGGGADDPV

With `[Ni]` [Nickel] the “Mean % inhibition (positive control)” value [1] was 76.6%.
`COc1ccc(CCN(C)CCCN2CCc3cc(OC)c(OC)cc3CC2=O)cc1OC` [Zatebradine] was tested, and the inhibition at 100 µM [2] was 96.1% and the inhibition at 10 µM [3] was 88.3%.

Reference: patent publication US8541395B2 (priority 2009, dated 2013)
